Values quoted from earlier work in patent publication US10113200B2, “Genes associated with dasatinib sensitivity” (MEMORIAL SLOAN-KETTERING CANCER CENTER, priority 2012, dated 2018).

Tested on: patients with chronic phase CML
Conditions: 100 mg once-daily compared with 70 mg twice-daily

Cc1nc(Nc2ncc(C(=O)Nc3c(C)cccc3Cl)s2)cc(N2CCN(CCO)CC2)n1 [dasatinib]
safety profile: improves the safety profile, particularly decreasing pleural effusion and thrombocytopenia, while maintaining efficacy
